The values that follow are results of earlier work, collected in patent US7482343B2, “Compounds, methods and compositions” (Cytokinetics, Inc., priority 2002, dated 2009).

One may read the GI50 as the concentration giving 50% growth inhibition.

This data set deals with A549 cells. As to conditions: data provided by National Cancer Institute.
In the case of `O=c1[nH]cc(F)c(=O)[nH]1` [5-fluorouracil], the GI50 was 1 µM.
Turning to `COc1cccc2c1C(=O)c1c(O)c3c(c(O)c1C2=O)C[C@@](O)(C(=O)CO)C[C@@H]3O[C@H]1C[C@H](N)[C@H](O)[C@H](C)O1` [doxorubicin], the GI50 was 0.063 µM.
`NC(=O)NO` [hydroxyurea]: the GI50 is 500 µM.
Consider `CC(=O)O[C@H]1C(=O)[C@@]2(C)[C@H]([C@H](OC(=O)c3ccccc3)[C@]3(O)C[C@H](OC(=O)[C@H](O)[C@@H](NC(=O)c4ccccc4)c4ccccc4)C(C)=C1C3(C)C)[C@]1(OC(C)=O)CO[C@@H]1C[C@@H]2O` [paclitaxel], for which the GI50 is 0.004 µM.
